Tests used:
[1] = target: human adenosine A3 receptor (Homo sapiens (Human), UniProt P0DMS8); assay: Adenosine receptor binding assay ([125I]-AB-MECA competition); details: inhibition of 0.15 nM [125I]-AB-MECA binding, membranes of cells expressing human A3 receptor; read-out: hA3 Ki: Ki
Source text: Example 30: Adenosine Receptor Binding Assay
Materials and Reference Compounds: [^125I]-AB-MECA and [^3H]CCPA are both obtained from Amersham Biosciences (Little Chalfont, UK). IB-MECA are obtained from Tocris (Bristol, UK) and N6-cyclopentyl adenosine (CPA) is obtained from Sigma-Alrich (Poole, UK). Cell culture media, G418 and hygromycin are obtained from Invitrogen (Paisley, UK). Fetal calf serum is obtained from Perbio Science (Cheshire, UK). All other reagents are obtained from Fisher Chemicals (Loughborough, UK).
The method followed is that of Yates L, Clark J H, Martin T J, James S, Broadley K J, Kidd E J. Radioligand binding and functional responses of ligands for human recombinant adenosine A3 receptors. Auton Autacoid Pharmacol. 2006; 26(2):191-200. Cells stably transfected with the human adenosine A3 or A1 receptor are grown in Dulbecco's modified Eagles medium with nutrient mixture F12 containing NaHCO3 and Glutamax. Media is supplemented with 10% fetal calf serum, geneticin (G418; 0.67 mg/mL), hygromycin (500 μg/mL) and adenosine deaminase (1 U/mL). Cells are maintained at 37° C. with 5% CO2 in air. Cells are harvested and homogenized in ice-cold Tris buffer [50 mM Tris, 150 mM NaCl, 1 mM ethylenediaminetetraacetic acid (EDTA), pH 7.4] supplemented with the peptidase inhibitors, 4-(2-aminoethyl)benzenesulfonylfluoride (1 mM) and bacitracin (0.1 mg/mL), using a Polytron homogenizer (3×10 s bursts). The homogenate was spun for 10 min (4° C.) at 500 g. The supernatant is retained and the pellet is re-suspended in the buffer, homogenized and spun as above. The combined supernatants are centrifuged for 15 min (4° C.) at 48,000 g. The resultant pellet is re-suspended in the buffer and centrifuged for a second time at 48,000 g. The membrane pellet is then suspended in Tris buffer containing no peptidase inhibitors or adenosine deaminase and stored at −80° C. at a protein concentration of 1 mg/mL.
Binding Assays: Radioligand-binding assays were performed using the adenosine A3 receptor agonist [^125I]-AB-MECA and the A1 receptor agonist [^3H]CCPA. Binding assays were conducted in a total volume of 100 μL containing a 50 mM Tris, pH 7.4 buffer with or without 10 mM MgCl2, 20 μg membranes and either 0.15 nM [^125I]-AB-MECA (for the A3 receptor) or 1 nM [^3H]CCPA (for the A1 receptor). Assays were conducted at room temperature for 60 min (A1 receptor) or 120 min (A3 receptor) and terminated by the addition of 2 ml of ice-cold wash buffer (50 mM Tris, pH 7.4 with or without 10 mM MgCl2) and rapid filtration over 0.03% polyethylenimine-treated Whatman GF/C filters using a Brandel cell harvester (Semat International Ltd., St Albans, UK). Filters were then washed three times with 2 ml of ice-cold buffer. The filter-bound radioactivity were counted using a Compugamma counter (LKB Wallac, Turku, Finland). Competition experiments were performed to investigate the ability of reference compounds and embodiments of the invention to inhibit [^125I]-AB-MECA binding. Non-specific binding were determined using the respective compound at its highest concentration.
Data Analysis: The Kd and Bmax values for binding data were calculated based upon the molar amounts of bound and free [^125I]-AB-MECA. […] IC50 and Ki values and Hill slopes for inhibition of the radioligand binding by the compounds of the invention were calculated from the ligand competition curves using the Excel spreadsheet and the Kd value calculated for either [^125I]-AB-MECA or [^3H]CCPA. The results were expressed as a percent of control specific binding and as a percent inhibition of control specific binding obtained in the presence of the compounds of the invention. The IC50 values (concentration causing a half-maximal inhibition of control specific binding) and Hill coefficients (nH) were determined by non-linear regression analysis of the competition curves generated with mean replicate values using Hill equation curve fitting: […]

ADORA3 = ADORA3 (Homo sapiens (Human), UniProt P0DMS8); assay: Intracellular calcium release assay (FLIPR); type: cell-based; details: for EC50: CHO-K1 cells, Fluo-4, top concentration 10 μM, read-out: Cell Calcium Assay EC50; for Cell Calcium Efficacy (%): percentage of the response to NECA
Experimental: Example 32: Intracellular Calcium Release Assay
Cell Culture: The table below lists the cell lines used that stably express the 4 subtypes of adenosine receptors, along with the growth medium used for each:
For experiments with the ADORA1- and ADORA3-expressing cells, the medium was aspirated and the cells washed twice with 10 mL DPBS. Two mL of trypsin was added and incubated at 37° C. for 1 minute. Then 10 mL of platting media was added to terminate the digestion and 1 mL of the solution was taken out for cell counting. ADORA2A- and ADORA2B-expressing cells were thawed rapidly in a 37° C. water bath. Cell suspensions were transferred to 50 mL conical tubes. Plating media was added to the 10 mL mark and then 1 mL taken out for cell counting. The 50 mL tubes containing the various types of cells were centrifuged at 1000 g. Then the supernatants were aspirated, being careful not to aspirate the cells. The cell pellets were resuspended in 3-5 mL platting media, then 0.5 mL was taken out for cell counting. Then the cell suspension was diluted to 1×10^6 cells/mL (20,000 cells per 20 μL per well) in platting medium, and cells were seeded into 384-well cell plates (Greiner-781946). The 384-well cell plate was placed in a 37° C./5% CO2 incubator (Thermo-371, Thermo Scientific) for 16-20 hours.
Preparation of the intracellular calcium imaging agent (Fluo-4 Direct™ Calcium Assay Kit, Invitrogen-F10471, Thermo Scientific): One mL of FLIPR Assay Buffer was added to 77 mg probenecid to make a 250 mM solution, which was used fresh for each day. One vial of Fluo-4 Direct™ crystals was thawed and 10 mL of FLIPR Assay Buffer was added to the vial. 0.2 mL of probenecid was added to each 10 mL vial of Fluo-Direct™ solution, such that the final assay concentration was 2.5 mM. It was vortexed, left to stand >5 min and protected from light. The dye was prepared fresh each day.
Compound Preparation: Compound plates were prepared as follows. First, the test compound was diluted to prepare a 2 mM solution and then 10-point 3-fold serial dilutions were made using ECHO (ECHO 555, LabCyte), then 900 nL was transferred to the compound plate. For all targets, the final top concentration of the test compound was […]. For agonist reference compounds, 10-point and 3-fold serial dilutions were made, then 900 nL was transferred to the assay plate. Then 30 μL of assay buffer was added to the compound plate and then the plate was centrifuged at 1000 rpm for 1 min.
FLIPR Assay: Cell plates were removed from the incubator, to which were added 20 μL 2×Fluo-4 Direct™ solution, then the plates were reincubated in a 5% CO2, 37° C. incubator for 50 min and at RT for 10 min. To run the protocol on the Fluorescent Imaging Plate Reader (FLIPR) TETRA (MD-FT0249, Molecular Devices, Inc.), 10 μL of assay buffer was transferred from the 384-well plate (Greiner-781280) to the cell plates and then the fluorescence signal was read. Then 10 μL of compound solution was transferred from the compound plate to the cell plates and the fluorescence signal was read. The “Max-Min” was calculated, starting from Read 91 to the maximum allowed. For agonists, activation %=(RLU−LC)/(HC−LC)*100, based on the following: RLU=relative light unit, 91 to maximum allowed signal; HC=average signal of the high concentration of agonist; LC=average signal of DMSO well. The data were fitted using GraphPad Prism 5, using the model “log(agonist) vs. response—Variable slope” to determine the EC50 value. The receptor efficacy of the test compound relative to the agonist NECA was calculated as a percentage (%) of the response to […]. Table 10 includes EC50 values for compounds described herein.

ADORA3, sequence (P0DMS8 whole entry): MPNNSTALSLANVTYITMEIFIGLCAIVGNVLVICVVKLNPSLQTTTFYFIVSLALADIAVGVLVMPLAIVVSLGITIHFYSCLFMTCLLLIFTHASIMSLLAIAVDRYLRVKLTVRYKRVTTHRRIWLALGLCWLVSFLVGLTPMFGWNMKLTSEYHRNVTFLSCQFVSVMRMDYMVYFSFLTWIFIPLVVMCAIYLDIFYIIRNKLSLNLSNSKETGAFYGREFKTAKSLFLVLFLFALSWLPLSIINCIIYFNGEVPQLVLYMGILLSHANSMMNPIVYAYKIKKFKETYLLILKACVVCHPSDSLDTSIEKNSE
human adenosine A3 receptor, sequence (P0DMS8 whole entry): as above

| Structure (SMILES) | Ki [1] [nM] | EC50 (ADORA3) [nM] | Cell Calcium Efficacy (%) (ADORA3) |
| --- | --- | --- | --- |
| O[C@@H]1[C@H](O)[C@@H]2C[C@@H]2[C@H]1n1cnc2c(NC3CCC3)cc(Cl)nc21 [Compound 44, (1R,2R,3S,4R,5S)-4-(5-chloro-7-(cyclobutylamino)-3H-imidazo[4,5-b]pyridin-3-yl)bicyclo[3.1.0]hexane-2,3-diol] | 28.4 | 23.1 | 52 |
| O[C@@H]1[C@H](O)[C@@H]2C[C@@H]2[C@H]1n1cnc2c(NCc3cc(F)ccc3F)cc(Cl)nc21 [Compound 45, (1R,2R,3S,4R,5S)-4-(5-chloro-7-((2,5-difluorobenzyl)amino)-3H-imidazo[4,5-b]pyridin-3-yl)bicyclo[3.1.0]hexane-2,3-diol] | 1.3 | 29.5 | 22.5 |
| O[C@@H]1[C@H](O)[C@@H]2C[C@@H]2[C@H]1n1cnc2c(NCC(F)F)c(F)c(Cl)nc21 [Compound 61, (1R,2R,3S,4R,5S)-4-(5-chloro-7-((2,2-difluoroethyl)amino)-6-fluoro-3H-imidazo[4,5-b]pyridin-3-yl)bicyclo[3.1.0]hexane-2,3-diol] | 7.15 | 60 | 67.3 |
| CNC(=O)[C@@]12C[C@@H]1[C@@H](n1cnc3c(NCCO)cc(Cl)nc31)[C@H](O)[C@@H]2O [Compound 91, (1S,2R,3S,4R,5S)-4-(5-chloro-7-((2-hydroxyethyl)amino)-3H-imidazo[4,5-b]pyridin-3-yl)-2,3-dihydroxy-N-methylbicyclo[3.1.0]hexane-1-carboxamide] | 5.1 |  |  |
| Nc1c(OCc2cccc(Cl)c2)c(Cl)nc2c1ncn2[C@H]1[C@H](O)[C@H](O)[C@@H]2C[C@@H]21 [Compound 92, (1R,2R,3S,4R,5S)-4-(7-amino-5-chloro-6-((3-chlorobenzyl)oxy)-3H-imidazo[4,5-b]pyridin-3-yl)bicyclo[3.1.0]hexane-2,3-diol] | 26.8 |  |  |

Second part, the compound after the results:

| Ki [1] [nM] | EC50 (ADORA3) [nM] | Cell Calcium Efficacy (%) (ADORA3) | Structure (SMILES) |
| --- | --- | --- | --- |
| 4.77 | 1.9 | 106 | CNC(=O)[C@@]12C[C@@H]1[C@@H](n1cnc3c(NCC(F)F)cc(Cl)nc31)[C@H](O)[C@@H]2O [Compound 82] |
| 1.62 |  |  | CNC(=O)[C@@]12C[C@@H]1[C@@H](n1cnc3c(NCC(C)C)cc(Cl)nc31)[C@H](O)[C@@H]2O [Compound 83, (1S,2R,3S,4R,5S)-4-(5-chloro-7-(isobutylamino)-3H-imidazo[4,5-b]pyridin-3-yl)-2,3-dihydroxy-N-methylbicyclo[3.1.0]hexane-1-carboxamide] |
| 2.42 |  |  | CNC(=O)[C@@]12C[C@@H]1[C@@H](n1cnc3c(N)cc(Cl)nc31)[C@H](O)[C@@H]2O [Compound 90, (1S,2R,3S,4R,5S)-4-(7-amino-5-chloro-3H-imidazo[4,5-b]pyridin-3-yl)-2,3-dihydroxy-N-methylbicyclo[3.1.0]hexane-1-carboxamide] |
